Assay results as given in ChEMBL document CHEMBL4219219, “The synthesis and antistaphylococcal activity of N-sulfonaminoethyloxime derivatives of dehydroabietic acid” (Bioorg Med Chem Lett, 2018).
In brackets after ≈: the same amount, converted by molar mass. Activity calls are given as the source filed them. The calls are words filed in the database; no cut-off is given here.

Key:
[1] = system: Staphylococcus aureus; test: Antistaphylococcal activity against erythromycin-resistant Staphylococcus aureus NRS-70 after 18 hrs by two-fold serial dilution method; assay type: functional; settings: NRS-70, 18 h
[2] = system: Escherichia coli; test: Antibacterial activity against Escherichia coli AB1157 at 50 ug/ml after 18 hrs by two-fold serial dilution method; assay type: functional, organism-based
[3] = system: Staphylococcus aureus; test: Antistaphylococcal activity against gentamicin-resistant Staphylococcus aureus NRS-108 after 18 hrs by two-fold serial dilution method; assay type: functional; settings: NRS-108, 18 h
[4] = system: Staphylococcus aureus; test: Antistaphylococcal activity against Staphylococcus aureus Newman after 18 hrs by two-fold serial dilution method; assay type: functional
[5] = system: Staphylococcus aureus; test: Antistaphylococcal activity against linezolid-resistant Staphylococcus aureus NRS-271 containing phage type E-MRSA 15 after 18 hrs by two-fold serial dilution method; assay type: functional; settings: NRS-271, 18 h
[6] = system: Staphylococcus aureus; test: Antistaphylococcal activity against aminoglycosides/tetracycline-resistant Staphylococcus aureus NRS-1 after 18 hrs by two-fold serial dilution method; assay type: functional; settings: NRS-1, 18 h
[7] = system: Staphylococcus aureus; test: Antistaphylococcal activity against oxacillin/tetracycline-resistant Staphylococcus aureus NRS-100 after 18 hrs by two-fold serial dilution method; assay type: functional; settings: NRS-100, 18 h

Structure (SMILES)	MIC [1] [µg/mL]	Activity [2]	MIC [3] [µg/mL]	MIC [4] [µg/mL]	MIC [5] [µg/mL]	MIC [6] [µg/mL]	MIC [7] [µg/mL]
CC(C)c1cc2c(cc1Br)[C@@]1(C)CCC[C@@](C)(C(=O)O)[C@@H]1C/C2=N\OCCNS(=O)(=O)c1ccccc1Br	1.56 to 3.13 (≈ 2.33 to 4.67 µM)	inactive	1.56 to 3.13 (≈ 2.33 to 4.67 µM)	1.56 to 3.13 (≈ 2.33 to 4.67 µM)	1.56 to 3.13 (≈ 2.33 to 4.67 µM)	1.56 to 3.13 (≈ 2.33 to 4.67 µM)	1.56 to 3.13 (≈ 2.33 to 4.67 µM)
Cc1ccc(S(=O)(=O)NCCO/N=C2\C[C@H]3[C@](C)(C(=O)O)CCC[C@]3(C)c3cc(Br)c(C(C)C)cc32)cc1	1.56 to 3.13 (≈ 2.58 to 5.17 µM)	inactive	1.56 to 3.13 (≈ 2.58 to 5.17 µM)	1.56 to 3.13 (≈ 2.58 to 5.17 µM)	3.13 to 6.25 (≈ 5.17 to 10.3 µM)	3.13 to 6.25 (≈ 5.17 to 10.3 µM)	3.13 to 6.25 (≈ 5.17 to 10.3 µM)
CC(C)c1cc2c(cc1Br)[C@@]1(C)CCC[C@@](C)(C(=O)O)[C@@H]1C/C2=N\OCCNS(=O)(=O)c1ccc(F)cc1	1.56 to 3.13 (≈ 2.56 to 5.13 µM)	inactive	1.56 to 3.13 (≈ 2.56 to 5.13 µM)	1.56 to 3.13 (≈ 2.56 to 5.13 µM)	1.56 to 3.13 (≈ 2.56 to 5.13 µM)	1.56 to 3.13 (≈ 2.56 to 5.13 µM)	1.56 to 3.13 (≈ 2.56 to 5.13 µM)
CC(C)c1cc2c(cc1Br)[C@@]1(C)CCC[C@@](C)(C(=O)O)[C@@H]1C/C2=N\OCCNS(=O)(=O)c1ccc(Br)c(C(F)(F)F)c1	0.78 to 1.56 (≈ 1.06 to 2.11 µM)	inactive	0.78 to 1.56 (≈ 1.06 to 2.11 µM)	0.78 to 1.56 (≈ 1.06 to 2.11 µM)	0.78 to 1.56 (≈ 1.06 to 2.11 µM)	0.78 to 1.56 (≈ 1.06 to 2.11 µM)	0.78 to 1.56 (≈ 1.06 to 2.11 µM)
CC(C)c1cc2c(cc1Br)[C@@]1(C)CCC[C@@](C)(C(=O)O)[C@@H]1C/C2=N\OCCNS(=O)(=O)c1ccc(Br)s1	1.56 to 3.13 (≈ 2.31 to 4.63 µM)	inactive	1.56 to 3.13 (≈ 2.31 to 4.63 µM)	1.56 to 3.13 (≈ 2.31 to 4.63 µM)	1.56 to 3.13 (≈ 2.31 to 4.63 µM)	1.56 to 3.13 (≈ 2.31 to 4.63 µM)	1.56 to 3.13 (≈ 2.31 to 4.63 µM)
CN[C@H](CC(C)C)C(=O)N[C@H]1C(=O)N[C@@H](CC(N)=O)C(=O)N[C@H]2C(=O)N[C@H]3C(=O)N[C@H](C(=O)N[C@H](C(=O)O)c4cc(O)cc(O)c4-c4cc3ccc4O)[C@H](O)c3ccc(c(Cl)c3)Oc3cc2cc(c3O[C@@H]2O[C@H](CO)[C@@H](O)[C@H](O)[C@H]2O[C@H]2C[C@](C)(N)[C@H](O)[C@H](C)O2)Oc2ccc(cc2Cl)[C@H]1O [VANCOMYCIN]	0.2 to 0.39 (≈ 0.138 to 0.269 µM)		0.39 to 0.78 (≈ 0.269 to 0.538 µM)	0.78 to 1.56 (≈ 0.538 to 1.08 µM)	0.39 to 0.78 (≈ 0.269 to 0.538 µM)	1.56 to 3.13 (≈ 1.08 to 2.16 µM)	0.39 to 0.78 (≈ 0.269 to 0.538 µM)
CC(C)c1cc2c(cc1Br)[C@@]1(C)CCC[C@@](C)(C(=O)O)[C@@H]1C/C2=N\OCCNS(=O)(=O)c1cccc(C(F)(F)F)c1	0.78 to 1.56 (≈ 1.18 to 2.37 µM)	inactive	0.78 to 1.56 (≈ 1.18 to 2.37 µM)	0.39 to 0.78 (≈ 0.591 to 1.18 µM)	1.56 to 3.13 (≈ 2.37 to 4.75 µM)	1.56 to 3.13 (≈ 2.37 to 4.75 µM)	1.56 to 3.13 (≈ 2.37 to 4.75 µM)
Cc1ccccc1S(=O)(=O)NCCO/N=C1\C[C@H]2[C@](C)(C(=O)O)CCC[C@]2(C)c2cc(Br)c(C(C)C)cc21	1.56 to 3.13 (≈ 2.58 to 5.17 µM)	inactive	1.56 to 3.13 (≈ 2.58 to 5.17 µM)	1.56 to 3.13 (≈ 2.58 to 5.17 µM)	1.56 to 3.13 (≈ 2.58 to 5.17 µM)	1.56 to 3.13 (≈ 2.58 to 5.17 µM)	3.13 to 6.25 (≈ 5.17 to 10.3 µM)
CC(C)c1ccc2c(c1)CC[C@H]1[C@](C)(C(=O)O)CCC[C@]21C [DEHYDROABIETIC ACID]	12.5 to 25 (≈ 41.6 to 83.2 µM)		12.5 to 25 (≈ 41.6 to 83.2 µM)	12.5 to 20 (≈ 41.6 to 66.6 µM)	12.5 to 25 (≈ 41.6 to 83.2 µM)	12.5 to 25 (≈ 41.6 to 83.2 µM)	12.5 to 25 (≈ 41.6 to 83.2 µM)
CC(C)c1cc2c(cc1Br)[C@@]1(C)CCC[C@@](C)(C(=O)O)[C@@H]1C/C2=N\OCCNS(=O)(=O)c1ccccc1C(F)(F)F		inactive		> 50			
CC(C)c1cc2c(cc1Br)[C@@]1(C)CCC[C@@](C)(C(=O)O)[C@@H]1C/C2=N\OCCNS(=O)(=O)c1ccc(Br)cc1	0.78 to 1.56 (≈ 1.16 to 2.33 µM)	inactive	0.78 to 1.56 (≈ 1.16 to 2.33 µM)	0.78 to 1.56 (≈ 1.16 to 2.33 µM)	0.78 to 1.56 (≈ 1.16 to 2.33 µM)	0.78 to 1.56 (≈ 1.16 to 2.33 µM)	0.78 to 1.56 (≈ 1.16 to 2.33 µM)
COc1ccc(S(=O)(=O)NCCO/N=C2\C[C@H]3[C@](C)(C(=O)O)CCC[C@]3(C)c3cc(Br)c(C(C)C)cc32)cc1		inactive		3.13 to 6.25 (≈ 5.04 to 10.1 µM)			
CC(C)c1cc2c(cc1Br)[C@@]1(C)CCC[C@@](C)(C(=O)O)[C@@H]1C/C2=N\OCCN		inactive		> 50			
CCCS(=O)(=O)NCCO/N=C1\C[C@H]2[C@](C)(C(=O)O)CCC[C@]2(C)c2cc(Br)c(C(C)C)cc21		inactive		12.5 to 25 (≈ 22.4 to 44.8 µM)			
CC(C)c1cc2c(cc1Br)[C@@]1(C)CCC[C@@](C)(C(=O)O)[C@@H]1C/C2=N\OCCNS(=O)(=O)c1cccc(Cl)c1	0.78 to 1.56 (≈ 1.25 to 2.49 µM)	inactive	1.56 to 3.13 (≈ 2.49 to 5 µM)	0.78 to 1.56 (≈ 1.25 to 2.49 µM)	1.56 to 3.13 (≈ 2.49 to 5 µM)	1.56 to 3.13 (≈ 2.49 to 5 µM)	1.56 to 3.13 (≈ 2.49 to 5 µM)
CC(C)c1cc2c(cc1Br)[C@@]1(C)CCC[C@@](C)(C(=O)O)[C@@H]1C/C2=N\OCCNS(=O)(=O)c1c(Cl)cccc1Cl	0.78 to 1.56 (≈ 1.18 to 2.36 µM)	inactive	1.56 to 3.13 (≈ 2.36 to 4.74 µM)	1.56 to 3.13 (≈ 2.36 to 4.74 µM)	1.56 to 3.13 (≈ 2.36 to 4.74 µM)	1.56 to 3.13 (≈ 2.36 to 4.74 µM)	1.56 to 3.13 (≈ 2.36 to 4.74 µM)
CC(C)c1cc2c(cc1Br)[C@@]1(C)CCC[C@@](C)(C(=O)O)[C@@H]1C/C2=N\OCCNS(=O)(=O)c1cccc2cccnc12	1.56 to 3.13 (≈ 2.43 to 4.87 µM)	inactive	3.13 to 6.25 (≈ 4.87 to 9.73 µM)	1.56 to 3.13 (≈ 2.43 to 4.87 µM)	3.13 to 6.25 (≈ 4.87 to 9.73 µM)	1.56 to 3.13 (≈ 2.43 to 4.87 µM)	3.13 to 6.25 (≈ 4.87 to 9.73 µM)
